The target in the assay is human activated kallikrein enzyme (Homo sapiens (Human), UniProt P03952). Put plainly: Plasma kallikrein inhibition assay with fluorogenic peptide substrate, 500 pM activated kallikrein format. The assay is classed as biochemical. Particulars: 500 pM activated kallikrein; 300 uM Pro-Phe-Arg-7-amido-4-methylcoumarin substrate; 30 min preincubation, 10 min reaction at RT; read-out: Primary Dose Response Assay: Average EC50. In a few lines:
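Pro-Phe-Arg-7-amido-4-methylcoumarin substrate (300 uM) started reactions after a 30 min RT enzyme–inhibitor preincubation. This format used 500 pM activated human kallikrein in Tris pH 7.5 buffer with EDTA, NaCl, PEG-400 and Triton X-100. AMC fluorescence (380/460 nm) was measured after 10 min at RT.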
Chain of human activated kallikrein enzyme (P03952 391-638): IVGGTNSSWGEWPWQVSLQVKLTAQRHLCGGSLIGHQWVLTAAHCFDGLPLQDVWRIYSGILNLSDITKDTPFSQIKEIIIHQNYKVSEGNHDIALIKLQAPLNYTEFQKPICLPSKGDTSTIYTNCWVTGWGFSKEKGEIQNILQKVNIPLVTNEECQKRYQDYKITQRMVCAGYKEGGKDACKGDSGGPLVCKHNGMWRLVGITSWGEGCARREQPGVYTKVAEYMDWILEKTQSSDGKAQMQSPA
Chain of human activated kallikrein enzyme (P03952 20-390 partner): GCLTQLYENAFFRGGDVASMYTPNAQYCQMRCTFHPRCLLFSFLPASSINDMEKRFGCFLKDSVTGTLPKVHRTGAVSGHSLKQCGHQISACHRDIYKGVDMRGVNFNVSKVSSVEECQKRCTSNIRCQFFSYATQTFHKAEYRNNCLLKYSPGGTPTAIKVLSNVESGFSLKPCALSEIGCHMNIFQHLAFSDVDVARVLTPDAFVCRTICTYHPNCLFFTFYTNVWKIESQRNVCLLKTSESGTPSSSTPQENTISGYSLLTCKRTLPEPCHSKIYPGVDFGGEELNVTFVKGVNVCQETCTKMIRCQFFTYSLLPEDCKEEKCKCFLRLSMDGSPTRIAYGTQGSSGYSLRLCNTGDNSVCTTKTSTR
Regarding `COc1ccc(-n2cnnn2)c(CNC(=O)c2cn(Cc3cn4cc(C5CC5)cc(CCC(=O)O)c4n3)nn2)c1F` [Example I-92, 3-(6-cyclopropyl-2-((4-((2-fluoro-3-methoxy-6-(1H-tetrazol-1-yl)benzyl)carbamoyl)-1H-1,2,3-triazol-1-yl)methyl)imidazo[1,2-a]pyridin-8-yl)propanoic acid], the EC50 is not above 1 nM.
With `COc1ccc(-n2cnnn2)c(CNC(=O)c2cn(Cc3cn4cc(C5CC5)cc(C(F)(F)F)c4n3)nn2)c1F` [Example I-93, 1-((6-cyclopropyl-8-(trifluoromethyl)imidazo[1,2-a]pyridin-2-yl)methyl)-N-(2-fluoro-3-methoxy-6-(1H-tetrazol-1-yl)benzyl)-1H-1,2,3-triazole-4-carboxamide], the EC50 is not above 1 nM.
Then `COc1ccc(-n2cnnn2)c(CNC(=O)c2nnc(Cc3cn4cc(C5CC5)ccc4n3)o2)c1F` [Example I-94, 5-((6-cyclopropylimidazo[1,2-a]pyridin-2-yl)methyl)-N-(2-fluoro-3-methoxy-6-(1H-tetrazol-1-yl)benzyl)-1,3,4-oxadiazole-2-carboxamide], with not above 1 nM; and `COc1ccc(-n2cccn2)c(CNC(=O)c2cn(Cc3cn4cc(C5CC5)ccc4n3)nn2)c1F` [Example I-95, 1-((6-cyclopropylimidazo[1,2-a]pyridin-2-yl)methyl)-N-(2-fluoro-3-methoxy-6-(1H-pyrazol-1-yl)benzyl)-1H-1,2,3-triazole-4-carboxamide], with 1 to 10 nM; and `COc1ccc(-n2cnnc2)c(CNC(=O)c2cn(Cc3cn4cc(C5CC5)ccc4n3)nn2)c1F` [Example I-96, 1-((6-cyclopropylimidazo[1,2-a]pyridin-2-yl)methyl)-N-(2-fluoro-3-methoxy-6-(4H-1,2,4-triazol-4-yl)benzyl)-1H-1,2,3-triazole-4-carboxamide], with 1 to 10 nM.
For the molecule `COc1ccc(-c2nnco2)c(CNC(=O)c2cn(Cc3cn4cc(C5CC5)ccc4n3)nn2)c1F` [Example I-97, 1-((6-cyclopropylimidazo[1,2-a]pyridin-2-yl)methyl)-N-(2-fluoro-3-methoxy-6-(1,3,4-oxadiazol-2-yl)benzyl)-1H-1,2,3-triazole-4-carboxamide], the EC50 fell in the range of 10 to 100 nM.
Then `O=C(NCc1c(-n2cnnn2)ccc(OC(F)(F)F)c1F)c1cn(Cc2cn3cc(C4CC4)ccc3n2)nn1` [Example I-98, 1-((6-cyclopropylimidazo[1,2-a]pyridin-2-yl)methyl)-N-(2-fluoro-6-(1H-tetrazol-1-yl)-3-(trifluoromethoxy)benzyl)-1H-1,2,3-triazole-4-carboxamide], with 100 to 2000 nM.
In the case of `COc1ccc(-n2cnnn2)c(CNC(=O)c2cn(Cc3cn4cc(C5CC5)cc(F)c4n3)nn2)c1F` [Example I-99, 1-((6-cyclopropyl-8-fluoroimidazo[1,2-a]pyridin-2-yl)methyl)-N-(2-fluoro-3-methoxy-6-(1H-tetrazol-1-yl)benzyl)-1H-1,2,3-triazole-4-carboxamide] it was not above 1 nM.
Then `COc1cccc(CNC(=O)c2cn(Cc3cn4cc(C5CC5)ccc4n3)nn2)c1F` [Example I-100, 1-((6-cyclopropylimidazo[1,2-a]pyridin-2-yl)methyl)-N-(2-fluoro-3-methoxybenzyl)-1H-1,2,3-triazole-4-carboxamide], with 100 to 2000 nM.
On to `COc1ccc(-c2ccncc2)c(CNC(=O)c2cn(Cc3cn4cc(C5CC5)ccc4n3)nn2)c1F` [Example I-101, 1-((6-cyclopropylimidazo[1,2-a]pyridin-2-yl)methyl)-N-(2-fluoro-3-methoxy-6-(pyridin-4-yl)benzyl)-1H-1,2,3-triazole-4-carboxamide], for which the EC50 was 1 to 10 nM.
Then `COc1ccc(Br)c(CNC(=O)c2cn(Cc3cn4cc(C5CC5)ccc4n3)nn2)c1F` [Example I-102, N-(6-bromo-2-fluoro-3-methoxybenzyl)-1-((6-cyclopropylimidazo[1,2-a]pyridin-2-yl)methyl)-1H-1,2,3-triazole-4-carboxamide], with 10 to 100 nM; and `Cc1cc(C(=N)N)cc(C)c1CNC(=O)c1cnn(Cc2cn3cc(C4CC4)ccc3n2)c1` [Example I-103, N-(4-carbamimidoyl-2,6-dimethylbenzyl)-1-((6-cyclopropylimidazo[1,2-a]pyridin-2-yl)methyl)-1H-pyrazole-4-carboxamide], with not above 1 nM; and `COc1ccc(-n2ccnc2)c(CNC(=O)c2cn(Cc3cn4cc(C5CC5)ccc4n3)nn2)c1F` [Example I-104, 1-((6-cyclopropylimidazo[1,2-a]pyridin-2-yl)methyl)-N-(2-fluoro-6-(1H-imidazol-1-yl)-3-methoxybenzyl)-1H-1,2,3-triazole-4-carboxamide], with 1 to 10 nM.
Then `COc1ccc(-n2cnnn2)c(CNC(=O)c2cn(Cc3cn4cc(C5CC5)ccc4n3)nn2)c1F` [Example I-105, 1-((6-cyclopropylimidazo[1,2-a]pyridin-2-yl)methyl)-N-(2-fluoro-3-methoxy-6-(1H-tetrazol-1-yl)benzyl)-1H-1,2,3-triazole-4-carboxamide], with not above 1 nM; and `O=C(NCc1c(-n2cnnn2)ccc(Cl)c1F)c1cn(Cc2cn3cc(C4CC4)ccc3n2)nn1` [Example I-106, N-(3-chloro-2-fluoro-6-(1H-tetrazol-1-yl)benzyl)-1-((6-cyclopropylimidazo[1,2-a]pyridin-2-yl)methyl)-1H-1,2,3-triazole-4-carboxamide], with not above 1 nM.
Then `COc1ccc(C#N)c(CNC(=O)c2cn(Cc3cn4cc(C5CC5)cc(CCC(=O)O)c4n3)nn2)c1F` [Example I-107, 3-(2-((4-((6-cyano-2-fluor-3-methoxybenzyl)carbamoyl)-1H-1,2,3-triazol-1-yl)methyl)-6-cyclopropylimidazo[1,2-a]pyridin-8-yl)propanoic Acid], with not above 1 nM.
Turning to `CCOC(=O)CCc1cc(C2CC2)cn2cc(Cn3cc(C(=O)NCc4c(C#N)ccc(OC)c4F)nn3)nc12` [Example I-108, ethyl 3-(2-((4-((6-cyano-2-fluoro-3-methoxybenzyl)carbamoyl)-1H-1,2,3-triazol-1-yl)methyl)-6-cyclopropylimidazo[1,2-a]pyridin-8-yl)propanoate], the EC50 lay within 1 to 10 nM.
Then `O=C(O)CCc1cc(C2CC2)cn2cc(Cn3cc(C(=O)NCc4c(-n5cnnn5)ccc(Cl)c4F)nn3)nc12` [Example I-109, 3-(2-((4-((3-choro-2-fluoro-6-(1H-tetrazol-1-yl)benzyl)carbamoyl)-1H-1,2,3-triazol-1-yl)methyl)-6-cyclopropylimidazo[1,2-a]pyridin-8-yl)propanoic Acid], with not above 1 nM; and `N#CNc1ccc(Cl)c(F)c1CNC(=O)c1cn(Cc2cn3cc(C4CC4)cc(CCC(=O)O)c3n2)nn1` [Example I-110, 3-(2-((4-((3-chloro-6-cyanamido-2-fluorobenzyl)carbamoyl)-1H-1,2,3-triazol-1-yl)methyl)-6-cyclopropylimidazo[1,2-a]pyridin-8-yl)propanoic Acid], with 1 to 10 nM; and `Cc1cc(C(=N)N)cc(C)c1CNC(=O)c1cn(Cc2cn3cc(C4CC4)cc(C(=O)O)c3n2)nn1` [Example I-111, 2-((4-((4-carbamimidoyl-2,6-dimethylbenzyl)carbamoyl)-1H-1,2,3-triazol-1-yl)methyl)-6-cyclopropylimidazo[1,2-a]pyridine-8-carboxylic Acid], with not above 1 nM.
Then `CCOC(=O)c1cc(C2CC2)cn2cc(Cn3cc(C(=O)NCc4c(C)cc(C(=N)N)cc4C)nn3)nc12` [Example I-112, ethyl 2-((4-((4-carbamimidoyl-2,6-dimethylbenzyl)carbamoyl)-1H-1,2,3-triazol-1-yl)methyl)-6-cyclopropylimidazo[1,2-a]pyridine-8-carboxylate], with not above 1 nM.
In the case of `CCOC(=O)CCc1cc(C2CC2)cn2cc(Cn3cc(C(=O)NCc4c(-n5cnnn5)ccc(Cl)c4F)nn3)nc12` [Example I-113, ethyl 3-(2-((4-((3-chloro-2-fluoro-6-(1H-tetrazol-1-yl)benzyl)carbamoyl)-1H-1,2,3-triazol-1-yl)methyl)-6-cyclopropylimidazo[1,2-a]pyridin-8-yl)propanoate] it was not above 1 nM.
As for `O=C(NCc1c(N2CC3(COC3)C2)ccc(Cl)c1F)c1cnn(Cc2cn3cc(C4CC4)ccc3n2)c1` [Example I-114, N-(3-chloro-2-fluoro-6-(2-oxa-6-azaspiro[3.3]heptan-6-yl)benzyl)-1-((6-cyclopropylimidazo[1,2-a]pyridin-2-yl)methyl)-1H-pyrazole-4-carboxamide], the EC50 lay within 100 to 2000 nM.
Then `Cc1cc(C(=N)N)cc(C)c1CNC(=O)c1cn(Cc2cn3cc(C4CC4)ccc3n2)nn1` [Example I-115, N-(4-carbamimidoyl-2,6-dimethylbenzyl)-1-((6-cyclopropylimidazo[1,2-a]pyridin-2-yl)methyl)-1H-1,2,3-triazole-4-carboxamide], with not above 1 nM; and `O=C(NCc1c(-n2cnnn2)ccc(Cl)c1F)c1cnn(Cc2cn3cc(C4CC4)ccc3n2)c1` [Example I-116, N-(3-chloro-2-fluoro-6-(1H-tetrazol-1-yl)benzyl)-1-((6-cyclopropylimidazo[1,2-a]pyridin-2-yl)methyl)-1H-pyrazole-4-carboxamide], with not above 1 nM.
Then `O=C(NCc1cc(Cl)ccc1-c1nn[nH]n1)c1cnn(Cc2cn3cc(C4CC4)ccc3n2)c1` [Example I-117, N-(5-chloro-2-(2H-tetrazol-5-yl)benzyl)-1-((6-cyclopropylimidazo[1,2-a]pyridin-2-yl)methyl)-1H-pyrazole-4-carboxamide], with more than 7100 nM; and `COc1ccc(C#N)c(CNC(=O)c2cnn(Cc3cn4cc(C5CC5)cc(C#N)c4n3)c2)c1F` [Example I-118, N-(6-cyano-2-fluoro-3-methoxybenzyl)-1-((8-cyano-6-cyclopropylimidazo[1,2-a]pyridin-2-yl)methyl)-1H-pyrazole-4-carboxamide], with not above 1 nM.

These data come from patent publication US11787796B2, “Plasma Kallikrein inhibitors and uses thereof” (Takeda Pharmaceutical Company Limited, priority 2019, dated 2023).
